This passage reports EC50 results from US10654856B2, “Method for preparing pyrrolo[3,2-D]pyrimidine compound, and intermediates thereof” (CHIA TAI TIANQING PHARMACEUTICAL GROUP CO., LTD., priority 2016, dated 2020).

This experiment deals with Toll-like receptor 7 (Homo sapiens (Human), UniProt Q9NYK1). Nature of the experiment: Toll-like receptor 7 in vitro receptor binding activity screen (HEK-blue hTLR7 cell, Quanti-Blue alkaline phosphatase readout). In kind it is cell-based. Particulars: 24 h incubation, read-out: TLR7 EC50. The protocol: Toll-Like Receptor 7 and Toll-Like Receptor 8 In Vitro Receptor Binding Activity Screen
Toll-like receptor 7, sequence (Q9NYK1 27-1049): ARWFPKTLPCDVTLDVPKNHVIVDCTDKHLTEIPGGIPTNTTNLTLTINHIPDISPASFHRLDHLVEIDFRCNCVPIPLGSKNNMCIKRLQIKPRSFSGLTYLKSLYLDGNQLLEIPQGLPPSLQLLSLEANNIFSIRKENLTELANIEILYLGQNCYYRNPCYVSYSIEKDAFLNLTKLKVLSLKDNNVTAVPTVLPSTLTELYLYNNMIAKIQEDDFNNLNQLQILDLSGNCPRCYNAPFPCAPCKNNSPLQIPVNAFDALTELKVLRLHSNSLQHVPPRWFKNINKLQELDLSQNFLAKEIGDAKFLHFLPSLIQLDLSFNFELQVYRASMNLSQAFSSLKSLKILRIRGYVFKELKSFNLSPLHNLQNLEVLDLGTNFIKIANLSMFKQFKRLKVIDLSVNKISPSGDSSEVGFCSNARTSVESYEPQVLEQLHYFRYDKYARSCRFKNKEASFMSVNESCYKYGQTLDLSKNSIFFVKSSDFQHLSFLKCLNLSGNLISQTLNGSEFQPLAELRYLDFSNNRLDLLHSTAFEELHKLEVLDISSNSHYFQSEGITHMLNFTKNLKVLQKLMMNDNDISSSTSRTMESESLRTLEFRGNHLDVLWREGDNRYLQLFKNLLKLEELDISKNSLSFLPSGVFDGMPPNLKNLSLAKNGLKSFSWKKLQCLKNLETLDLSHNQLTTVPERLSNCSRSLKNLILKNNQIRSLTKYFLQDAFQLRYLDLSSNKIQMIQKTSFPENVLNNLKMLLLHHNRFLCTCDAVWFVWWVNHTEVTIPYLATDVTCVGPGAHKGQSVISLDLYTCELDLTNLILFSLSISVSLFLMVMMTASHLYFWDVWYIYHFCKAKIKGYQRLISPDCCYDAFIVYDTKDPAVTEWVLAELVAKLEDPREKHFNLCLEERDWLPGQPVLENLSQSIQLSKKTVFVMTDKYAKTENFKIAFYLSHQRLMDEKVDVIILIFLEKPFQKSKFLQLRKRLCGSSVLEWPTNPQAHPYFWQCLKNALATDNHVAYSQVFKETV
HEK-blue hTLR7 cell and HEK-blue hTLR8 cell (available from InvivoGen)
heat inactivated fetal bovine serum
Anti Mycoplasma reagent Normocin™
The structures of GS-9620 and R848 used are as follows, wherein the preparation of GS-9620 could be referred to the process disclosed in US20100143301; R848 was commercially available from ABGENT (IMG-2208, specification: 0.5 mg).
1. Preparation of 96-well compound plate:
The compounds were gradient diluted with DMSO in 3-fold using liquid work station POD starting at a concentration of 10 mmol/L and 10 points were diluted (2nd column to 11th column, and each point was duplicated). At 12th column, 1 μL of 5 mg/mL positive compound R848 was added as positive control; and at 1st column, 1 μL of DMSO was added as negative control. Each well contained 1 μL of DMSO.
2. The cells in culture flask were collected and the cell density was diluted to 250,000 cells/mL.
3. 200 μL (50,000 cells/well) of cell suspension was added into prepared compound plate and the final concentration of DMSO in each well was 0.5%.
4. The culture plates containing cells and the compounds were incubated in CO2 incubator for 24 h at 37° C., 5% CO2.
5. After 24 h incubation, 20 μL of supernatant was removed from each well to a 96-well transparent assay plate. To each well of the assay plate was added 180 μL of Quanti-Blue reagent and the plate was incubated in an incubator at 37° C., 5% CO2 for 1 h.
6. After 1 h, the content of alkaline phosphatase in 20 μL of supernatant was determined using Microplate Reader OD650.
7. EC50 of each compound was obtained with Prism software.

For orientation: EC50 means the concentration that produces a half-maximal response. With `CCCCOc1nc(N)c2[nH]cc(Cc3ccc(CN4CCCC4)cc3)c2n1` [Compound 1, 2-butoxy-7-(4-(pyrrolidin-1-ylmethyl)benzyl)-5H-pyrrolo[3,2-d]pyrimidin-4-amine], the EC50 fell in the range of 100 to 1000 nM. Turning to `CCCCOc1nc(N)c2[nH]cc(Cc3ccc(CN4CCC(F)(F)C4)cc3)c2n1` [Compound 2], the EC50 fell in the range of 1000 to 50000 nM. In the case of `CCCCOc1nc(N)c2[nH]cc(Cc3ccc(CN4CCC(F)C4)cc3)c2n1` (stereo not shown) [Compound 3], the EC50 was in the range of 100 to 1000 nM.

Consider `CCCCOc1nc(N)c2[nH]cc(Cc3ccc(CN4CCC(O)C4)cc3)c2n1` (stereo not shown) [Compound 4], for which the EC50 fell in the range of 100 to 1000 nM. Regarding `CCCCOc1nc(N)c2[nH]cc(Cc3ccc(CN4CCCCC4)cc3)c2n1` [Compound 5], the concentration for a half-maximal effect (EC50) is 100 to 1000 nM. As to `CCCCOc1nc(N)c2[nH]cc(Cc3ccc(CN4CCOCC4)cc3)c2n1` [Compound 6], the EC50 lay within 1000 to 50000 nM. The same measure for `CCCCOc1nc(N)c2[nH]cc(Cc3ccc(CN4CCN(C)CC4)cc3)c2n1` [Compound 7]: 1000 to 50000 nM; for `CCCCOc1nc(N)c2[nH]cc(Cc3ccc(CN(C)C)cc3)c2n1` [Compound 8]: 100 to 1000 nM; for `CCCCOc1nc(N)c2[nH]cc(Cc3ccc(CN(CC)CC)cc3)c2n1` [Compound 9]: 100 to 1000 nM. As for `CCCCOc1nc(N)c2[nH]cc(Cc3ccc(CN(CCC)CCC)cc3)c2n1` [Compound 10], the EC50 was 100 to 1000 nM. The same measure for `CCCCOc1nc(N)c2[nH]cc(Cc3ccc(CN4CCC4)cc3)c2n1` [Compound 11]: 100 to 1000 nM; for `CCCCOc1nc(N)c2[nH]cc(Cc3ccc(CN4CC(OC)C4)cc3)c2n1` [Compound 12]: 100 to 1000 nM; for `CCCCOc1nc(N)c2[nH]cc(Cc3ccc(CN4CCCN(C)CC4)cc3)c2n1` [Compound 13]: 100 to 1000 nM. Turning to `CCCCOc1nc(N)c2[nH]cc(Cc3ccc(CN4CC(C)OC(C)C4)cc3)c2n1` (stereo not shown) [Compound 14], the EC50 was in the range of 100 to 1000 nM. `CCCCOc1nc(N)c2[nH]cc(Cc3ccc(CN4CCC(OC)CC4)cc3)c2n1` [Compound 15]: the EC50 lay within 100 to 1000 nM. Turning to `CCCCOc1nc(N)c2[nH]cc(Cc3ccc(CN4CCN(C(C)C)CC4)cc3)c2n1` [Compound 16], the concentration giving a half-maximal response (EC50) was 100 to 1000 nM.
